Source: publication PMC6976587, “Conversion of Broad-Spectrum Antimicrobial Peptides into Species-Specific Antimicrobials Capable of Precisely Targeting Pathogenic Bacteria” (Scientific Reports, 2020)
Converted amounts (≈) assume the structure as drawn. Residues, ends and D or L forms follow the SMILES beside them.

Key:
E. faecalis ATCC 29212 = assay type: cell-based, Enterococcus faecalis; settings: ATCC 29212, 16 h
Description: (§1) The antimicrobial activities of the peptides were investigated against the following bacteria: E. faecalis ATCC 29212, S. epidermidis ATCC 12228, S. aureus ATCC 29213, E. coli ATCC 25922, S. typhimurium […] and S. Pullorum […]. The MICs of the peptides were determined using a modified standard microtiter dilution method as described previously[29],[38]. Briefly, the microbial strains were cultured in MHB at 37 °C to reach mid-log phase and then diluted to 0.5-1×10^6 CFU/ml. 50 μL volumes of bacteria suspension were incubated in sterile 96-well plates with 50 μl of 2-fold serially diluted peptides at different concentrations (0.25-128 μM). Cultures with or without bacterial cells was employed as positive and negative controls, respectively. […] Each measurement was reproduced at least four times using three replicates.

[1] = system: panel of microbes (Gram-negative and Gram-positive bacteria); assay type: cell-based; settings: 16 h
Description: as §1

S. typhimurium C7731 = assay type: cell-based, Salmonella typhimurium; settings: C7731, 16 h
Description: as §1

S. Pullorum C7913 = assay type: cell-based, Salmonella Pullorum; settings: C7913, 16 h
Description: as §1

E. coli ATCC 25922 = assay type: cell-based, Escherichia coli; settings: ATCC 25922, 16 h
Description: as §1

S. aureus ATCC 29213 = assay type: cell-based, Staphylococcus aureus; settings: ATCC 29213, 16 h
Description: as §1

[2] = system: S. epidermidis ATCC 12228; assay type: cell-based, Staphylococcus epidermidis; settings: ATCC 12228, 16 h
Description: as §1

NCCCC[C@H](NC(=O)CNC(=O)[C@H](CC(N)=O)NC(=O)[C@H](CCCCN)NC(=O)[C@H](Cc1c[nH]c2ccccc12)NC(=O)[C@H](CCCCN)NC(=O)[C@H](Cc1c[nH]c2ccccc12)NC(=O)[C@H](CCCCN)NC(=O)[C@@H](N)Cc1c[nH]c2ccccc12)C(=O)N[C@@H](Cc1c[nH]c2ccccc12)C(=O)N[C@@H](CCCCN)C(=O)N[C@@H](Cc1c[nH]c2ccccc12)C(=O)N[C@@H](CCCCN)C(=O)N[C@@H](Cc1c[nH]c2ccccc12)C(=O)O [C6] (H-WKWKWKNGKWKWKW-OH)
MIC (μM) Gram-positive E. faecalis 25922 (E. faecalis ATCC 29212): 16 µM (≈ 33.2 µg/mL) | MICs against the panel of microbes (range) [1]: 2 to 16 µM | MIC (μM) Gram-negative S. typhimurium 29213 (S. typhimurium C7731): 8 µM (≈ 16.6 µg/mL) | MIC (μM) Gram-negative S. Pullorum 43300 (S. Pullorum C7913): 4 µM (≈ 8.3 µg/mL) | MIC (μM) Gram-negative E. coli 12228 (E. coli ATCC 25922): 2 µM (≈ 4.15 µg/mL) | MIC (μM) Gram-positive S. aureus 1005 (S. aureus ATCC 29213): 4 µM (≈ 8.3 µg/mL) | MIC (μM) Gram-positive S. epidermidis 7913 [2]: 8 µM (≈ 16.6 µg/mL)
